The text below walks through data of patent US5948792A, “Fluorine-containing 1,4-disubstituted piperidine derivatives” (Banyu Pharmaceutical Co., Ltd., priority 1996, dated 1999).

Where only a bound is given, the exact number is not on record here.

For assay [1], the target named is T1, Muscarinic M3 receptor (Homo sapiens, UniProt P20309).
T1 construct: purchased Receptor Biology, Inc; host or cells: CHO cells (membranes)
Kind of assay: Inhibition of binding of [3H]-N-methylscopolamine to muscarinic M3 receptor. The method, then: (§1) Tests on Inhibition of Binding to Muscarinic Receptors
(§2) These tests were performed according to a modification of the method of Hargreaves et al. (Br. J. Pharmacol. 107: 494-501, 1992). Membranes from CHO cells expressing cloned human m1-m5 (Receptor Biology, Inc.) were incubated with 0.2 nM [^3 H]-N-methylscopolamine and each a compound of the present invention to be tested in 0.5 ml of 50 mM Tris-HCl-10 mM MgCl2 -1 mM EDTA (pH 7.4) for 2 hours at 25° C. Free and membrane-bound [^3 H]-N-methylscopolamine were separated by filtration over glass filters (UniFilter-GF/C; Packard Instruments Co., Inc.) using cell harvester (Filtermate™ 196; Packard Instruments Co., Inc.). Then the filter was washed four times with 1 ml of ice-cold Tris-HCl (pH 7.4) and dried at 50° C. After adding a scintillator (Microscinti 0; Packard Instruments Co., Inc.), the radioactivity was counted by a liquid scintillation counter (TopCount™; Packard Instruments Co., Inc.). Non-specific binding was measured in the presence of 1 μM N-methylscopolamine.

For assay [2], the target named is T2, Muscarinic M3 Receptor (Rattus norvegicus, UniProt P08483).
T2 construct: male rats of the Sprague-Dawley strain; from tissue; host or cells: airways of living male Sprague-Dawley rats (in vivo)
T2 sequence (P08483 whole entry): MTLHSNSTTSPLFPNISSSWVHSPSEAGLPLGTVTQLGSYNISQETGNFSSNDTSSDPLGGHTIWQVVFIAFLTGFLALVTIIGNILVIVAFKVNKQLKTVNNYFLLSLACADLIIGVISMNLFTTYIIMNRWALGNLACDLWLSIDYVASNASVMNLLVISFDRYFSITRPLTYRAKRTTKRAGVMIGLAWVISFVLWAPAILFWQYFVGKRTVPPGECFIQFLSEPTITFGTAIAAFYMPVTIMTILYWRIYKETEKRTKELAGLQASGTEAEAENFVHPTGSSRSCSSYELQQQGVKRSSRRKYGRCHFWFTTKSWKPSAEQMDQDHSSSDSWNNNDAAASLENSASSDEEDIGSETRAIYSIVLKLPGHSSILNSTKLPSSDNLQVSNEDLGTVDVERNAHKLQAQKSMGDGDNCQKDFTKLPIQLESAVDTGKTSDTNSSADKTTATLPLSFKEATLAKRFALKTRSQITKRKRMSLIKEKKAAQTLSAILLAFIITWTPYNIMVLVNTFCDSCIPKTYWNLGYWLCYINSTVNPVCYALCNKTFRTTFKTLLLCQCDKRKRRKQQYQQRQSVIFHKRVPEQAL
As to the kind of experiment: Bronchodilation in rats (i.v.), inhibition of acetylcholine-induced increase in airway resistance. The format is in vivo. The note with it: iv, 5 min, acetylcholine 50 μg/kg i.v. 5 minutes after test compound, read-out: Inhibition of Airway Contraction ED50 iv. The method, then: (§3) Tests for Antagonism Against Muscarinic M3 Receptor (in vivo)
1-A) Tests for Bronchodilation in Rats (i.v.).
Eight- to eleven-weeks-old male rats of the Sprague-Dawley strain, weighing 380-420 g, were anesthetized with urethane (750 mg/kg. i.p.) and α-chloralose (37.5 mg/kg, i.p.). The bronchus of each rat was intubated, and the right jugular vein was cannulated for drug administration. […] To evoke an increase in airway resistance, acetylcholine (50 μg/kg, i.v.) was administered to the animals. The acetylcholine-induced airway resistance increase was measured 5 minutes before and 5 minutes after administration of test compound, and the ratio of the airway resistance of the latter to the former was calculated. In controls, isotonic sodium chloride solution was used in place of the test compounds and otherwise identical procedures were repeated, the calculated ratio being set to be 100%.

The target in a further assay is T3, Muscarinic M2 receptor (Homo sapiens, UniProt P08172).
T3 construct: purchased Receptor Biology, Inc; host or cells: CHO cells (membranes)
T3 sequence (P08172 1-466): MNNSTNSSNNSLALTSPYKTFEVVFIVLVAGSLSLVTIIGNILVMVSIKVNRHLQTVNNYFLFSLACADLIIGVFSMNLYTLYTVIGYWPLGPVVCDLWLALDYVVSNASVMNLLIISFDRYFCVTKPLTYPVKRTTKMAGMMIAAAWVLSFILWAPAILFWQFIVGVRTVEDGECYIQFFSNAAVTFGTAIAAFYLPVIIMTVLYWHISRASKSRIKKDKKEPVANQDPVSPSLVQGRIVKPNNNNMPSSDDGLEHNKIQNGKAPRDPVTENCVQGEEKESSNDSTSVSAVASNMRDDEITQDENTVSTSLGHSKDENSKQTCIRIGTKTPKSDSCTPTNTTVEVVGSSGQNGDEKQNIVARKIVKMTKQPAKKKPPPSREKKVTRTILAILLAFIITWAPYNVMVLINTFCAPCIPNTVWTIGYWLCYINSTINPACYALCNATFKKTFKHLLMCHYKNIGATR
Kind of assay: Inhibition of binding of [3H]-N-methylscopolamine to muscarinic M2 receptor. Particulars: CHO cell membranes expressing cloned human receptor; 0.2 nM [3H]-N-methylscopolamine, pH 7.4, 2 hours, 25° C; read-out: Ki M2 (inhibitory effects on binding to muscarinic M2 receptor). How it is done:
as §1, §2

Assay [3] has as its target T2, Muscarinic M3 Receptor. As to the kind of experiment: Bronchodilation in rats (p.o.), inhibition of acetylcholine-induced increase in airway resistance. The format is in vivo. Particulars: po, 1 h, acetylcholine 50 μg/kg i.v. 60 minutes after test compound, read-out: Inhibition of Airway Contraction ED50 po. The method, then:
as §3
1-B) Tests for Bronchodilation in Rats (p.o.)
Eight- to eleven-weeks-old male rats of Sprague-Dawley strain weighing 380-420 g were orally administered with a test compound. The rats were treated in the identical manner as in the i.v. test, starting 30 minutes after the administration, and their airway resistance values were measured. The acetylcholine-(50 μg/kg, i.v.) induced airway resistance increase were measured 60 minutes after the administration of test compounds. In controls, isotonic sodium chloride solution was used in place of the test compounds and otherwise identical procedures were repeated, the ratio between the two airway resistance values whereby being set to be 100%.

Assay [4] relates to Muscarinic M3 Receptor. Kind of assay: Bronchodilation in dogs (p.o.), methacholine provocation test. The format is in vivo, dog. The note with it: beagle dogs, 1 mg/kg p.o., 4 hours after administration. The method, then: as §3
2) Tests for Bronchodilation in Dogs (p.o.)
Twelve- to twenty-four-months-old male beagle dogs (weighing 10-15 kg) were anesthetized with pentobarbital (30 mg/kg, i.v.) and intubated in their bronchus. Their airway sensitivity to inhaled methacholine were measured at least twice at two-weeks interval, and the dogs showing a reproducible methacholine reaction threshold values^1) ware selected. To those dogs whose methacholine reaction threshold value had been confirmed, the test compounds were orally administered (1 mg/kg). Four hours after the administration, the methacholine provocation test was conducted, and then the methacholine reaction threshold value^2) after administration of the test compound was obtained.
The bronchodilator activity of the test compound was determined following equation: [formula]
The methacholine provocation test was conducted using Astograph TCK-6100H Model (Chest). Methacholine chloride was used as bronchoconstritor, which was diluted with isotonic sodium chloride solution in 10-grade concentration levels starting from 40,000 μg/ml, as 20,000, 10,000, 5,000, 2,500, 1,250, 625, 312.5, 156 and 78 μg/ml. These methacholine aerosols were inhaled to the test animal each for 1 min, starting from the lowest concentration level, and respiration resistance was continuously recorded. The concentration level at which the respiration resistance reached twice the initial value was recorded as the methacholine threshold value.

T1 sequence (P20309 whole entry): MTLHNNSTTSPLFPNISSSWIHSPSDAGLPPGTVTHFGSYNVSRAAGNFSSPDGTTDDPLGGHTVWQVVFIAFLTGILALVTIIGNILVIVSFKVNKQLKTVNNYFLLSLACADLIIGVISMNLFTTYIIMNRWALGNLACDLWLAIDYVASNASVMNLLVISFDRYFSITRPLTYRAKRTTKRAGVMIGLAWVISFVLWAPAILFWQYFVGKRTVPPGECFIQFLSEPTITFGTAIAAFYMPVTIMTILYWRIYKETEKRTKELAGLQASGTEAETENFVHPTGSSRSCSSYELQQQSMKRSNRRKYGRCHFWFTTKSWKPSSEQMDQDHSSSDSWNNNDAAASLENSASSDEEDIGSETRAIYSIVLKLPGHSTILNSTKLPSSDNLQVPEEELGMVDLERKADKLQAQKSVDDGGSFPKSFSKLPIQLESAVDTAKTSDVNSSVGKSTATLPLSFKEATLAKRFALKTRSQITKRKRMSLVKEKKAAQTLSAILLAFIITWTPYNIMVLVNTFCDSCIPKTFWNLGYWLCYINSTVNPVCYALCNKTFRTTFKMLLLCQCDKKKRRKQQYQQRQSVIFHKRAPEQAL

For orientation: Ki means a dissociation constant, usually derived from enzyme kinetics or from competition with a known ligand. In general, ED50 refers to the dose that gives a 50% effect, or the effect in half of the subjects. Regarding `COc1cc(CN2CCC(NC(=O)[C@](O)(c3ccccc3)[C@@H]3CCC(F)(F)C3)CC2)ccc1N` [Example 26, (2R)-N-[1-(4-amino-3-methoxybenzyl)piperidin-4-yl]-2-[(1R)-3,3-difluorocyclopentyl]-2-hydroxy-2-phenylacetamide], the Ki at Muscarinic M3 receptor [1] (CHO cell membranes expressing cloned human receptor, 0.2 nM [3H]-N-methylscopolamine, pH 7.4, 2 hours, 25° C, read-out: Ki M3 (inhibitory effects on binding to muscarinic M3 receptor)) was 0.022 µM; at Muscarinic M2 receptor, 24 µM. Further, the “M2/M3 (ratio of binding Ki)” value at Muscarinic M3 receptor [1] (selectivity ratio of Ki values, binding) is 1100. The ED50 at Muscarinic M3 Receptor [2] is 0.37 mg/kg; on Muscarinic M3 Receptor [3] it was 0.95 mg/kg. The “Methacholine Inhalation-inducing Test shift value (after 4 hrs.)” value in the assay with Muscarinic M3 Receptor [4] is above 64.
